# Laboratory results from patent publication US7087623B2, “Thiazole and other heterocyclic ligands for mammalian dopamine, muscarinic and serotonin receptors and transporters, and methods of use thereof” (Sepracor Inc., priority 2001, dated 2006).
# Like-named read-outs stand apart in the source and are kept apart here.
# Key:
# [1] = molecular target: T1, human dopamine D3 receptor (Homo sapiens, UniProt P35462); assay: Radioligand binding assay, human dopamine D3 receptors ([3H]Spiperone)
# T1 construct: expressed in transfected cells; host or cells: CHO
# T1 sequence (P35462 whole entry): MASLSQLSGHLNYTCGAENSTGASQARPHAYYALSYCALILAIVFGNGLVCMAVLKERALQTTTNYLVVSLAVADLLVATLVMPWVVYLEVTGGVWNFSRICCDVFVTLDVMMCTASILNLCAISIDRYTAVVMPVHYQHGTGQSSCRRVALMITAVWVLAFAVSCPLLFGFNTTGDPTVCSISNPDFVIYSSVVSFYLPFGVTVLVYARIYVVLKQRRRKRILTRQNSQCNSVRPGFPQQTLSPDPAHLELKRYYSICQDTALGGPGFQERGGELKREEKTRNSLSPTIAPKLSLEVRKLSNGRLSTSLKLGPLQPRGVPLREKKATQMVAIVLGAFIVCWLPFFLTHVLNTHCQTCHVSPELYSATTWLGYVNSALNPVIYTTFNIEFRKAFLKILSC
# Method: The assay for binding to human D3 receptors was conducted according to Sokoloff, P. et al. Nature 1990, 347, 146.
# CHO cells stably transfected with a plasmid encoding the human dopamine D3 receptor were used to prepare membranes in modified Tris-HCl pH 7.4 buffer using standard techniques. […] Non-specific binding was estimated in the presence of 25 μM S-(−)-sulpiride. […] See Sokoloff, P. et al. “Molecular cloning and characterization of a novel dopamine receptor (D3) as a target for neuroleptics” Nature 347: 146–151, 1990.
# (§1) The human 5-HT2a and 5-HT2b screens were conducted according to Bonhaus, D. W. et al. Br. J. Pharmacol. 1995, 115, 622. The human […], W. A. et al. J. Neurochem. 1997, 69, 1449. The human 5-HT6 screen was conducted according to Monsama, F. J. et al. Mol. Pharmacol. 1993, 43, 320. The assay to human D3 receptors was conducted according to Sokoloff, P. et al. Nature 1990, 347;146. The human dopamine transporter assay was conducted according to Gu, H. et. al. J. Biol. Chem. 1994, 269 (10);7124; and Giros, B. et al. Trends. Pharmacol. Sci. 1993, 14: 43. The human muscarinic M1–M4 screens were conducted according to Buckley N. J. et al. Mol. Pharmacol. 1989, 35:469.
# [2] = molecular target: T2, human serotonin 5-HT6 receptor (Homo sapiens, UniProt P50406); assay: Radioligand binding assay, human 5-HT6 receptors ([3H]LSD)
# T2 construct: expressed in transfected cells; host or cells: HeLa/E6-7
# T2 sequence (P50406 whole entry): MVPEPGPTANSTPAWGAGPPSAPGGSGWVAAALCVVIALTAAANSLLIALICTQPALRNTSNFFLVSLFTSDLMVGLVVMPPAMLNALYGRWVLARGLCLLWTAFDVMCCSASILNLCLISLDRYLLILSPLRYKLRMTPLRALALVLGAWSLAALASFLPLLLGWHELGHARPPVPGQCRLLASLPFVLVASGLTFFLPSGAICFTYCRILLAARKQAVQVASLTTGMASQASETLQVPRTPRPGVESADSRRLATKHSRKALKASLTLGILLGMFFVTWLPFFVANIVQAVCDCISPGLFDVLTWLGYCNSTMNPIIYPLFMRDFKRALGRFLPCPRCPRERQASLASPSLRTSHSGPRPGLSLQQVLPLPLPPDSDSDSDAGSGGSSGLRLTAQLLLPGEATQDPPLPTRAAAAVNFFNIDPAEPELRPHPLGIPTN
# Method: (§2) The human 5-HT2a and 5-HT2b screens were conducted according to Bonhaus, D. W. et al. Br. J. Pharmacol. 1995, 115, 622. The human 5-HT2c screen was conducted according to Wolf, W. A. et al. J. Neurochem. 1997, 69, 1449. The human 5-HT6 screen was conducted according to Monsma, F. J. et al. Mol. Pharmacol. 1993, 43, 320.
# This assay measures binding of [^3H]LSD (lysergic acid diethylamide) to human serotonin 5-HT6 receptors. HeLa/E6–7 cells stably transfected with a plasmid encoding the human serotonin 5-HT6 receptor were used to prepare membranes in modified Tris-HCl pH 7.4 buffer using standard techniques. A 30 μg aliquot of membrane was incubated with 1.5 nM [^3H]LSD for 120 minutes at 37° C. Non-specific binding was estimated in the presence of 5 μM 5-HT. Membranes were filtered and washed 3 times and the filters were counted to determine [^3H]LSD specifically bound. See Monsma, Jr., F. J. et al. “Cloning and expression of a novel serotonin receptor with high affinity for tricyclic psychotropic drugs” Mol. Pharmacol. 43: 320–327, 1993.
# as §1
# [3] = molecular target: T3, human dopamine transporter (Homo sapiens, UniProt Q01959); assay: Binding to human dopamine transporter ([125I]RTI-55); settings: human; Example 100 table; read-out: IC50 (nM) DAT
# T3 construct: expressed in transfected cells; host or cells: CHO-K1
# T3 sequence (Q01959 whole entry): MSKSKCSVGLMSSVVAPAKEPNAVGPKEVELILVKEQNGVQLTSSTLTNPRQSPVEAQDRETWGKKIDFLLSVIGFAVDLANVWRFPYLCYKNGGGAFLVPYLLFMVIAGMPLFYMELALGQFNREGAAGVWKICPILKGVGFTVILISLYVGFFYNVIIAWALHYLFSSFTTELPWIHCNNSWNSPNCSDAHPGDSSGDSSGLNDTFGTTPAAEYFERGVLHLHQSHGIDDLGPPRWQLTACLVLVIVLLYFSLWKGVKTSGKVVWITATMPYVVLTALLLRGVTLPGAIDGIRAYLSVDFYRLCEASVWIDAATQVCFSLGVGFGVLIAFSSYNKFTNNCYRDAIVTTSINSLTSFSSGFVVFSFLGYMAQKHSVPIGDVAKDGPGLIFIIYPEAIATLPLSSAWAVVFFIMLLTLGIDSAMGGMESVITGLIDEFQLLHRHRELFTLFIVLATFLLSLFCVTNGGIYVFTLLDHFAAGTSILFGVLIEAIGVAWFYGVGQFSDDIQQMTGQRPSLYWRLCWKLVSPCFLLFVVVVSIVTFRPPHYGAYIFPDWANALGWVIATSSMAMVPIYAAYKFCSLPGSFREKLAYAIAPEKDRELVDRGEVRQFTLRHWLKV
# Method: CHO-K1 cell membranes stably transfected with a plasmid encoding the human dopamine transporter were prepared in modified Tris-HCl pH 7.4 buffer using standard techniques. […] Non-specific binding was estimated in the presence of 10 μM nomifensine. […] Trends. […]
# [4] = molecular target: T4, human serotonin 5-HT2B receptor (Homo sapiens, UniProt P41595); assay: Radioligand binding assay, human 5-HT2B receptors ([3H]LSD)
# T4 construct: expressed in transfected cells; host or cells: CHO-K1
# T4 sequence (P41595 whole entry): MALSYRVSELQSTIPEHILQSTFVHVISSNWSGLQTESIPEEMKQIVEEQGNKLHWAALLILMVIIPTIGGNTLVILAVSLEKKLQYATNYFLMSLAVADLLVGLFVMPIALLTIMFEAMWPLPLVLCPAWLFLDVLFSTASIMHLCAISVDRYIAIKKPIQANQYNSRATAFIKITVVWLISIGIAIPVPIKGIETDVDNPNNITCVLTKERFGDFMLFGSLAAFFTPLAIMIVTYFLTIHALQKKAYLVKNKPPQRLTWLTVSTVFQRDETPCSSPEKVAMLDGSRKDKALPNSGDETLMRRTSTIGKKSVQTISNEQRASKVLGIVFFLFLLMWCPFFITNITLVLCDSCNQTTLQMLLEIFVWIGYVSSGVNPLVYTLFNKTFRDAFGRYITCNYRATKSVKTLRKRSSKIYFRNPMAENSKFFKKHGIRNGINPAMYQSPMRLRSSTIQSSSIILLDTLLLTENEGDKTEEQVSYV
# Method: This assay measures binding of [^3H]LSD to human serotonin 5-HT2B receptors. CHO-K1 cells stably transfected with a plasmid encoding the human serotonin 5-HT2B receptor were used to prepare membranes in modified Tris-HCl pH 7.4 buffer using standard techniques. […] Non-specific binding was estimated in the presence of 10 μM serotonin. Membranes were filtered and washed 3 times and the filters were counted to determine [^3H]LSD specifically bound. See Bonhaus, D. W. et al. “The pharmacology and distribution of human 5-hydroxytryptamine2B (5-HT2B) receptor gene products: comparison with 5-HT2A and 5-HT2C receptors” Brit.
# The human 5-HT2b screen was conducted according to Wolf, W. A. et al. J. Neurochem.
# [5] = molecular target: T5, human serotonin 5-HT2C receptor (Homo sapiens, UniProt P28335); assay: Radioligand binding assay, human 5-HT2C receptors ([3H]Mesulergine)
# T5 construct: expressed in transfected cells; host or cells: CHO-K1
# T5 sequence (P28335 33-458): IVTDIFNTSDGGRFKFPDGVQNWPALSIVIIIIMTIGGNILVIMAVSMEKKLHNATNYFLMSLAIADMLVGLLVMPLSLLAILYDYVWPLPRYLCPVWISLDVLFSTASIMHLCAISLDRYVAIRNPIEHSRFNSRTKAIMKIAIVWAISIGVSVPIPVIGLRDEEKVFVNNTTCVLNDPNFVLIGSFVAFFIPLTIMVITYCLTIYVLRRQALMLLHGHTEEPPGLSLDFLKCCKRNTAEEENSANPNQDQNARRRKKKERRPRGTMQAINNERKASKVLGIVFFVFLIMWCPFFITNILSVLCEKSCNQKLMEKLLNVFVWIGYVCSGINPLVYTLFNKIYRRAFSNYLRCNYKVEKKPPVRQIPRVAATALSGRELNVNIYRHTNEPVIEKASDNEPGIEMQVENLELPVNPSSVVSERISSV
# Method: as §2
# CHO-K1 cells stably transfected with a plasmid encoding the human serotonin 5-HT2C receptor were used to prepare membranes in modified Tris-HCl pH 7.7 buffer using standard techniques. […] Non-specific binding was estimated in the presence of 1 μM mianserin. […] See Wolf, W. A. and Schutz, J. S. “The serotonin 5-HT2C receptor is a prominent serotonin receptor in basal ganglia: evidence from functional studies on serotonin-mediated phosphoinositide hydrolysis” J. Neurochem. 69: 1449–1458, 1997.
# as §1
# [6] = molecular target: T6, human serotonin 5-HT2A receptor (Homo sapiens, UniProt P28223); assay: Radioligand binding assay, human 5-HT2A receptors ([3H]Ketanserin)
# T6 construct: expressed in transfected cells; host or cells: CHO-K1
# T6 sequence (P28223 whole entry): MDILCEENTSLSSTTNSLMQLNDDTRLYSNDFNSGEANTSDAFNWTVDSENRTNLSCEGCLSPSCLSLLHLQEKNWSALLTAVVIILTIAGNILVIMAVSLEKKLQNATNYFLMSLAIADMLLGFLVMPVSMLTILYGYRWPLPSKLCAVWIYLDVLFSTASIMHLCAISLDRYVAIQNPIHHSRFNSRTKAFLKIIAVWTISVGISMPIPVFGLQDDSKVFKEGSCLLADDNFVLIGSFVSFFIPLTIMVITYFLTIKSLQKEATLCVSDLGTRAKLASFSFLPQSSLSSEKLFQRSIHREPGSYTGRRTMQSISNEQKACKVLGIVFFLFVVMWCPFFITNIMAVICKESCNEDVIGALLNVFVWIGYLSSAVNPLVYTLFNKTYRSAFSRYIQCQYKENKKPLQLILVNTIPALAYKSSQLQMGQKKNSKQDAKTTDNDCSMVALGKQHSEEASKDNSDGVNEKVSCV
# Method: as §2
# CHO-K1 cells stably transfected with a plasmid encoding the human serotonin 5-HT2A receptor were used to prepare membranes in modified Tris-HCl pH 7.7 buffer using standard techniques. […] Non-specific binding was estimated in the presence of 1 μM mianserin. […] See Bonhaus, D. W. et al. “The pharmacology and distribution of human 5-hydroxytryptamine2B (5-HT2B) receptor gene products: comparison with 5-HT2A and 5-HT2C receptors” Brit. J. Pharmacol. 115: 622–628, 1995; and Saucier, C and Albert, P. R. “Identification of an endogenous 5-hydroxytryptamine2A receptor in NIH-3T3 cells: agonist-induced down-regulation involves decreases in receptor RNA and number” J. Neurochem. 68: 1998–2011, 1997.
# as §1
# [7] = human, Example 100 table, read-out: IC50 (nM) D3
# [8] = human, Example 100 table, read-out: IC50 (nM) 5-HT6
# [9] = human 5-HT2b, Example 16 table, read-out: IC50 (nM) 5-HT2b
# [10] = human 5-HT2c, Example 16 table, read-out: IC50 (nM) 5-HT2c
# [11] = Example 20 table, read-out: IC50 (nM) Against Human D3 Receptors
# [12] = human 5-HT6, Example 16 table, read-out: IC50 (nM) 5-HT6
# [13] = human 5-HT2a, Example 16 table, read-out: IC50 (nM) 5-HT2a
# [14] = human, Example 100 table, read-out: IC50 (nM) 5-HT2B
# [15] = human, Example 100 table, read-out: IC50 (nM) 5-HT2C
# [16] = human, Example 100 table, read-out: IC50 (nM) 5-HT2A
SMILES,"IC50 [1, 7]","IC50 [2, 8]","IC50 [4, 9]","IC50 [5, 10]","IC50 [1, 11]","IC50 [2, 12]","IC50 [6, 13]",also measured
"CNC1CCN(c2nc(C3(c4ccccc4F)CCCCC3)cs2)C1 (stereo not shown) [Compound 134, (1-{4-[1-(2-fluorophenyl)-cyclohexyl]-thiazol-2-yl}-pyrrolidin-3-yl)-methyl-amine]",> 1000 nM,< 1000 nM,,,,,,IC50 [3]: > 1000 nM
CN1CCN(c2nc(C3(c4ccc(OC(F)(F)F)cc4)CCOCC3)cs2)CC1 [Compound 55],,,> 1000 nM,< 1000 nM,< 1000 nM,> 1000 nM,< 1000 nM,
"CN1CCCC1CCNc1nc(C2(c3ccc(Cl)cc3)CCOCC2)cs1 (racemic) [Compound 125, {4-[4-(4-chlorophenyl)-tetrahydropyran-4-yl]-thiazol-2-yl}-[2-(1-methyl-pyrrolidin-2-yl)-ethyl]-amine]",> 1000 nM,> 1000 nM,,,,,,IC50 [3]: > 1000 nM
CN1CCN(c2nc(Cc3csc4ccc(Cl)cc34)cs2)CC1 [Compound 33],,,< 10 nM,< 100 nM,< 1000 nM,< 1000 nM,< 1000 nM,
CN1CCCN(c2nc(C3(c4ccccc4F)CCCC3)cs2)CC1 [Compound 139],< 1000 nM,< 100 nM,,,,,,"IC50 [4, 14]: < 100 nM; IC50 [5, 15]: < 100 nM; IC50 [6, 16]: < 1000 nM"
CN1CCC(c2nc(C3(c4ccc(Cl)cc4)CCC3)cs2)CC1 [Compound 31],,,< 1000 nM,< 1000 nM,< 1000 nM,< 1000 nM,> 1000 nM,
Clc1cccc(C2(c3csc(C4CCNCC4)n3)CCOCC2)c1 [Compound 68],,,> 1000 nM,> 1000 nM,> 1000 nM,< 1000 nM,> 1000 nM,
CN1CCN(c2nc(C3(c4ccc(F)cc4)CCCCC3)cs2)CC1 [Compound 81],,,< 100 nM,< 1000 nM,< 1000 nM,< 1000 nM,> 1000 nM,
Fc1ccccc1C1(c2csc(N3CCNCC3)n2)CCCC1 [Compound 121],> 1000 nM,< 100 nM,,,,,,IC50 [3]: > 1000 nM
Fc1ccccc1C1(c2csc(N3CCN(CC4CC4)CC3)n2)CCCC1 [Compound 122],< 1000 nM,< 1000 nM,,,,,,IC50 [3]: < 1000 nM
"Clc1ccc(C2(c3csc(NCCCN4CCOCC4)n3)CCC2)cc1 [Compound 21, {4-[1-(4-chlorophenyl)-cyclobutyl]thiazol-2-yl}-(3-morpholin-4-yl-propyl)amine]",,,< 1000 nM,< 1000 nM,> 1000 nM,> 1000 nM,> 1000 nM,
Cc1c(-c2csc(N3CCN(C)CC3)n2)sc2ccc(Cl)cc12 [Compound 113],> 1000 nM,> 1000 nM,,,,,,"IC50 [4, 14]: > 1000 nM; IC50 [5, 15]: < 1000 nM; IC50 [6, 16]: < 1000 nM"
CN1CCC(c2nc(C3(c4cccc(Cl)c4)CCOCC3)cs2)CC1 [Compound 69],,,> 1000 nM,> 1000 nM,> 1000 nM,< 1000 nM,> 1000 nM,
CC(C)N1CCN(c2nc(C3(c4ccc(Cl)cc4)CCCCC3)cs2)CC1 [Compound 78],,,< 1000 nM,> 1000 nM,< 1000 nM,> 1000 nM,> 1000 nM,
Clc1ccc(C2(c3csc(NCCN4CCOCC4)n3)CCCC2)cc1 [Compound 99],> 1000 nM,< 1000 nM,,,,,,IC50 [3]: < 1000 nM
CN1CCCC1CCNc1nc(C2(c3ccccc3F)CCCC2)cs1 (stereo not shown) [Compound 111],< 1000 nM,< 1000 nM,,,,,,IC50 [3]: > 1000 nM
CN1CCN(c2nc(C3(c4ccc(F)cc4)CCOCC3)cs2)CC1 [Compound 47],,,,,,,,"IC50 [4]: > 1000 nM; IC50 ([5]; IC50 (nM) 5-HT2c, human 5-HT2c, Example 16 table): > 1000 nM; IC50 ([1]; IC50 (nM) Against Human D3 Receptors, Example 20 table): > 1000 nM; IC50 ([2]; IC50 (nM) 5-HT6, human 5-HT6, Example 16 table): < 1000 nM; IC50 ([6]; IC50 (nM) 5-HT2a, human 5-HT2a, Example 16 table): > 1000 nM"
"Clc1ccc(C2(c3csc(C4CCNCC4)n3)CCC2)cc1 [Compound 30, 4-{4-[1-(4-chlorophenyl)cyclobutyl]thiazol-2-yl}-piperidine]",,,< 1000 nM,< 1000 nM,> 1000 nM,< 1000 nM,< 1000 nM,
CN1CCN(c2nc(C3(c4ccc(Cl)cc4)CCCCC3)cs2)CC1 [Compound 34],,,< 100 nM,< 100 nM,< 1000 nM,< 1000 nM,> 1000 nM,
COc1cccc(C2(c3csc(N4CCN(C)CC4)n3)CCOCC2)c1 [Compound 67],> 1000 nM,< 1000 nM,,,,,,"IC50 [4, 14]: > 1000 nM; IC50 [5, 15]: > 1000 nM; IC50 [6, 16]: > 1000 nM"
CN1CCN(c2nc(C3(c4ccc(C(F)(F)F)cc4)CCOCC3)cs2)CC1 [Compound 43],,,> 1000 nM,> 1000 nM,< 1000 nM,< 1000 nM,> 1000 nM,
Clc1ccc(C2(c3nc(N4CCNCC4)sc3Cl)CCOCC2)cc1 [Compound 39],,,< 1000 nM,< 1000 nM,> 1000 nM,< 1000 nM,< 1000 nM,
COc1ccc(C2(c3csc(N4CCN(C)CC4)n3)CCOCC2)cc1 [Compound 51],,,> 1000 nM,> 1000 nM,> 1000 nM,< 1000 nM,> 1000 nM,
